# Values quoted from earlier work as cited in patent US20140275170A1, “TASTE MASKING OF ANESTHETICS AND ANALGESICS” (priority 2013, published 2014).
# Settings: maximum doses of 7 mg/kg (550 mg)
structure (smiles),measurement,value
Cc1cccc(C)c1NC(=O)C1CCCCN1C (stereo not shown) [mepivacaine],Adverse effect at maximum doses,without adverse effect
